Source: patent US11297837B2, “Pesticidally activi mixtures comprising anthranilamide compounds” (priority 2016, dated 2022)

Tests used:
Type in all cases: in vivo
[1] = test system: green peach aphid (Myzus persicae); assay: Green peach aphid (Myzus persicae) control through systemic means, artificial diet in 96-well microtiter plates; settings: 2 ppm; aphid mortality and fecundity visually assessed after 3 days
Text: For evaluating control of green peach aphid (Myzus persicae) through systemic means the test unit consisted of 96-well-microtiter plates containing liquid artificial diet under an artificial membrane.
Different concentrations of formulated compounds or mixtures were pipetted into the aphid diet, using a custom built pipetter, at two replications.
(§1) For experimental mixtures in these tests identical volumes of both mixing partners at the desired concentrations respectively, were mixed together.
After application, 5-8 adult aphids were placed on the artificial membrane inside the microtiter plate wells. […] Aphid mortality and fecundity was then visually assessed.

[2] = test system: yellow fever mosquito (Aedes aegypti); assay: Yellow fever mosquito (Aedes aegypti) control, larvae in tap water in 96-well microtiter plates; settings: larval mortality visually assessed after 2 days
Method: For evaluating control of yellow fever mosquito (Aedes aegypti) the test unit consisted of 96-well-microtiter plates containing 200 μl of tap water per well and 5-15 freshly hatched A. aegypti larvae.
The compounds or mixtures were formulated using a solution containing 75% water and 25% DMSO. Different concentrations of formulated compounds or mixtures were sprayed onto the insect diet at 2.5 μl, using a custom built micro atomizer, at two replications.
as §1
After application, microtiter plates were incubated at 28±1° C., 80±5% RH for 2 days. Larval mortality was then visually assessed.

[3] = test system: boll weevil (Anthonomus grandis); assay: Boll weevil (Anthonomus grandis) control, insect diet with eggs in 24-well microtiter plates; settings: egg and larval mortality visually assessed after 5 days
Method: For evaluating control of boll weevil the test unit consisted of 24-well-microtiter plates containing an insect diet and 20-30 A. grandis eggs.
The compounds or mixtures were formulated using a solution containing 75% water and 25% DMSO. Different concentrations of formulated compounds or mixtures were sprayed onto the insect diet at 20 μl, using a custom built micro atomizer, at two replications.
as §1
After application, microtiter plates were incubated at 23+1° C., 50+5% RH for 5 days. Egg and larval mortality was then visually assessed.

In the case of `CCN1OC[C@@H](NC(=O)c2ccc(C3=NOC(c4cc(Cl)cc(Cl)c4)(C(F)(F)F)C3)cc2C)C1=O` (stereo partly drawn) [II-4.1, 4-[5-(3,5-dichlorophenyl)-5-(trifluoromethyl)-4H-isoxazol-3-yl]-N-[(4R)-2-ethyl-3-oxo-isoxazolidin-4-yl]-2-methyl-benzamide], the “Average Control %” value [1] is reported as 0%.

For `CC(NC(=O)c1cc(Cl)cc(Br)c1NC(=O)c1cc(Br)nn1-c1ncccc1Cl)C1CC1` (centres unmarked) [I.2, cyclaniliprole, reference compound], the “Average Control %” value ([2]; 2 ppm) was 0% and the “Average Control %” value ([3]; 0.08 ppm) was 0%.

`Cn1nc(C(F)(F)C(F)(F)F)c(C(F)(F)F)c1C(=O)Nc1ccc(Cl)c(C(=O)NCc2ccccc2)c1` [II-1, N-[4-Chloro-3-[[(phenylmethyl)amino]carbonyl]phenyl]-1-methyl-3-(1,1,2,2,2-pentafluoroethyl)-4-(trifluoromethyl)-1H-pyrazole-5-carboxamide] was tested, and the “Average Control %” value ([2]; 20 ppm) was 50% and the “Average Control %” value ([3]; 20 ppm) was 0%.
